Values quoted from earlier work in patent publication US20090092650A1, “Sustained Delivery Formulations of Octreotide Compounds” (priority 2004, published 2009).

Details: Marbach et al. 1992

C[C@@H](O)[C@@H]1NC(=O)[C@H](CCCCN)NC(=O)[C@@H](Cc2c[nH]c3ccccc23)NC(=O)[C@H](Cc2ccccc2)NC(=O)[C@@H](NC(=O)[C@H](N)Cc2ccccc2)CSSC[C@@H](C(=O)N[C@H](CO)[C@@H](C)O)NC1=O [octreotide]
Therapeutic plasma level: 0.3 ng/mL
